This is an account of results in US10364256B2 (GlaxoSmithKline Intellectual Property Development Limited, priority 2015, dated 2019).

Like-named read-outs stand apart in the source and are kept apart here.

The subject of assay [1] is NQO1 specific enzyme activity in BEAS-2B cells (marker for NRF2 activation). Put plainly: BEAS-2B NQO1 MTT Assay. The format is cell-based. The settings on record: compound incubated 48 hours, read-out: EC50 (NQO1 specific enzyme activity induction). The essentials:
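BEAS-2B cells treated with compound for 48 h at 37 °C, then lysed; NQO1 activity in lysates measured kinetically by MTT reduction at A570 over 30 min. pEC50 from 3-parameter fit of ΔOD/min versus log concentration; lysate also taken for Cell Titer Glo.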

Assay [2] has as its target T1, full length Keap1 protein / full length NRF2 protein (Homo sapiens, UniProt Q14145).
T1 construct: full length NRF2 protein and full length Keap1 protein (Keap1 exists a dimer) are used; His
The assay is described as follows: NRF2-Keap1 TR-FRET Assay. Format: binding. The conditions noted are these: 25 nM Keap1-FlagHis and 50 nM biotin-NRF2 added. The essentials: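 Full-length Keap1-FlagHis preincubated with compound 2.25 h at 37 °C, then biotin-NRF2 added for 1.25 h at 4 °C, in Tris pH 8.0 with MgCl2, NaCl, BSA, DTT, CHAPS. TR-FRET 665/615 nm ratio normalised to with- and without-protein 1% DMSO controls; pIC50 from four-parameter fit.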

T1 sequence (Q14145 whole entry): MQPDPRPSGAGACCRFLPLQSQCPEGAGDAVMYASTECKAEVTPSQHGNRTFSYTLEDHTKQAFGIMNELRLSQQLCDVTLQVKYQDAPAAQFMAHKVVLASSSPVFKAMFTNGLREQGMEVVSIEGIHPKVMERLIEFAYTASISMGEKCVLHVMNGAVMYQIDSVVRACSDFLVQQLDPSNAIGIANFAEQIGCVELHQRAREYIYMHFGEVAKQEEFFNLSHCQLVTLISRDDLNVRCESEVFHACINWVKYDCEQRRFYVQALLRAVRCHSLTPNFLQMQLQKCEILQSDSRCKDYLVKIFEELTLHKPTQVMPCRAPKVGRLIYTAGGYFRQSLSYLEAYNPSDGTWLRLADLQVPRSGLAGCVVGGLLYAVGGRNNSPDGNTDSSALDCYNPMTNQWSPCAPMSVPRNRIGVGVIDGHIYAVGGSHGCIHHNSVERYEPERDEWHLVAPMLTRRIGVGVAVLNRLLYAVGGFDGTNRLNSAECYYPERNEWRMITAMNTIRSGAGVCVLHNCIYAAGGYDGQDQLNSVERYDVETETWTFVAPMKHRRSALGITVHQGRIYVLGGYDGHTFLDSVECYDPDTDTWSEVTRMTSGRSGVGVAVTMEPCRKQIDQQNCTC

The term EC50 denotes the concentration needed to bring the measured effect to its halfway point. Usually IC50 stands for the concentration that gives 50% inhibition. A low value points to greater potency. “1-(3′-((2-chlorocyclohexyl)methoxy)-[1,1′-biphenyl]-3-yl)-5-((1,2-trans)-2-(1-methyl-1H-1,2,3-triazol-4-yl)cyclopropyl)-1H-pyrazole-4-carboxylic acid [Example 186]”: in assay [1], the EC50 is 10 to 100 nM. This molecule also gave an IC50 in assay [2] of 100 to 1000 nM.
For the molecule `Cn1cc([C@@H]2C[C@H]2c2c(C(=O)O)cnn2-c2cccc(-c3cccc(-n4ncc5c4C(C)(C)CC5)c3)n2)nn1` (racemic) [Example 251, 1-(6-(3-(6,6-Dimethyl-5,6-dihydrocyclopenta[c]pyrazol-1(4H)-yl)phenyl)pyridin-2-yl)-5-(trans-2-(1-methyl-1H-1,2,3-triazol-4-yl)cyclopropyl)-1H-pyrazole-4-carboxylic Acid], the EC50 in assay [1] (Homo sapiens) lay within 100 to 1000 nM. In assay [2], the IC50 was 10 to 100 nM.
Consider `Cn1cc([C@@H]2C[C@H]2c2c(C(=O)O)cnn2-c2cccc(-c3cccc(CN4Cc5ccccc5OC(C)(C)C4)c3)c2)nn1` (racemic) [Example 254, 1-(3′-((2,2-Dimethyl-2,3-dihydrobenzo[f][1,4]oxazepin-4(5H)-yl)methyl)-[1,1′-biphenyl]-3-yl)-5-(trans-2-(1-methyl-1H-1,2,3-triazol-4-yl)cyclopropyl)-1H-pyrazole-4-carboxylic Acid], for which the EC50 in assay [1] (Homo sapiens) is 100 to 1000 nM. The IC50 in assay [2] was 100 to 1000 nM.
For `Cn1cc([C@H]2C[C@@H]2c2c(C(=O)O)cnn2-c2cccc(-c3cccc(C(=O)N4CCCCC4)c3F)c2)nn1` (racemic) [Example 258, 1-(2′-Fluoro-3′-(piperidine-1-carbonyl)-[1,1′-biphenyl]-3-yl)-5-(trans-2-(1-methyl-1H-1,2,3-triazol-4-yl)cyclopropyl)-1H-pyrazole-4-carboxylic Acid], in assay [1] (Homo sapiens), the EC50 fell in the range of 100 to 1000 nM. This molecule came in with an IC50 in assay [2] of 10 to 100 nM.
Turning to `Cn1cc([C@H]2C[C@@H]2c2c(C(=O)O)cnn2-c2cccc(-c3cccc(C(=O)N4CCCC(C)(C)C4)c3F)c2)nn1` (racemic) [Example 259, 1-(2′-Fluoro-3′-(3,3-dimethylpiperidine-1-carbonyl)-[1,1′-biphenyl]-3-yl)-5-(trans-2-(1-methyl-1H-1,2,3-triazol-4-yl)cyclopropyl)-1H-pyrazole-4-carboxylic Acid], the EC50 in assay [1] (Homo sapiens) was 100 to 1000 nM. Also, the IC50 in assay [2] was in the range of 10 to 100 nM.
On to `Cn1cc([C@H]2C[C@@H]2c2c(C(=O)O)cnn2-c2cccc(-c3cccc(C(=O)N4CCCCCC4)c3F)c2)nn1` (racemic) [Example 260, 1-(2′-Fluoro-3′-(azepane-1-carbonyl)-[1,1′-biphenyl]-3-yl)-5-(trans-2-(1-methyl-1H-1,2,3-triazol-4-yl)cyclopropyl)-1H-pyrazole-4-carboxylic Acid], for which, in assay [1] (Homo sapiens), the EC50 is 100 to 1000 nM. In assay [2], this molecule returned an IC50 of 10 to 100 nM.
In the case of `CC1CC(C)CN(C(=O)c2cccc(-c3cccc(-n4ncc(C(=O)O)c4[C@@H]4C[C@H]4c4cn(C)nn4)c3)c2F)C1` (mixture of isomers) [Example 263, 1-(3′-(3,5-Dimethylpiperidine-1-carbonyl)-2′-fluoro-[1,1′-biphenyl]-3-yl)-5-(2-(1-methyl-1H-1,2,3-triazol-4-yl)cyclopropyl)-1H-pyrazole-4-carboxylic Acid], the EC50 in assay [1] (Homo sapiens) was 100 to 1000 nM. The IC50 in assay [2] lay within 10 to 100 nM.
In the case of `COCC1CCCCN1C(=O)c1cccc(-c2cccc(-n3ncc(C(=O)O)c3C3C[C@H]3c3cn(C)nn3)c2)c1F` (mixture of isomers) [Example 264, 1-(3′-(2-(Methoxymethyl)piperidine-1-carbonyl)-2′-fluoro-[1,1′-biphenyl]-3-yl)-5-(trans-2-(1-methyl-1H-1,2,3-triazol-4-yl)cyclopropyl)-1H-pyrazole-4-carboxylic Acid], the EC50 in assay [1] (Homo sapiens) lay within 100 to 1000 nM. In assay [2], this molecule yielded an IC50 of 10 to 100 nM.
With `CC(C)CN(C)C(=O)c1cccc(-c2cccc(-n3ncc(C(=O)O)c3[C@@H]3C[C@H]3c3cn(C)nn3)c2)c1F` (racemic) [Example 266, 1-(2′-Fluoro-3′(isobutyl(methyl)carbamoyl)-[1,1′-biphenyl]-3-yl)-5-(trans-2-(1-methyl-1H-1,2,3-triazol-4-yl)cyclopropyl)-1H-pyrazole-4-carboxylic Acid], the EC50 in assay [1] (Homo sapiens) was in the range of 100 to 1000 nM. Further, the IC50 in assay [2] lay in the range of 10 to 100 nM.
On to `CC(Oc1cccc(-c2cccc(-n3ncc(C(=O)O)c3[C@@H]3C[C@H]3c3cn(C)nn3)n2)c1)C1CCCCC1` (relative stereo) [Example 249, 1-(6-(3-(1-Cyclohexylethoxy)phenyl)pyridin-2-yl)-5-(trans-2-(1-methyl-1H-1,2,3-triazol-4-yl)cyclopropyl)-1H-pyrazole-4-carboxylic Acid], for which, in assay [1] (Homo sapiens), the EC50 is 1 to 10 nM. In addition, the IC50 in assay [2] lay within 10 to 100 nM.
For the molecule `CCC1Cc2ccccc2CN(Cc2cccc(-c3cccc(-n4ncc(C(=O)O)c4[C@@H]4C[C@H]4c4cn(C)nn4)c3)c2)C1` (relative stereo) [Example 252, 1-(3′-((4-Ethyl-4,5-dihydro-1H-benzo[c]azepin-2(3H)-yl)methyl)-[1,1′-biphenyl]-3-yl)-5-(trans-2-(1-methyl-1H-1,2,3-triazol-4-yl)cyclopropyl)-1H-pyrazole-4-carboxylic Acid], the EC50 in assay [1] (Homo sapiens) fell in the range of 100 to 1000 nM. In assay [2], this molecule returned an IC50 of 100 to 1000 nM.
`C[C@@H]1CCC[C@H](C)N1C(=O)c1cccc(-c2cccc(-n3ncc(C(=O)O)c3[C@H]3C[C@@H]3c3cn(C)nn3)c2)c1F` (single isomer, unassigned) [Example 261]: in assay [1] (Homo sapiens), the EC50 was 10 to 100 nM. The IC50 in assay [2] fell in the range of 10 to 100 nM.
As for `C[C@@H]1CCC[C@H](C)N1C(=O)c1cccc(-c2cccc(-n3ncc(C(=O)O)c3[C@@H]3C[C@H]3c3cn(C)nn3)c2)c1F` (single isomer, unassigned) [Example 262], in assay [1] (Homo sapiens), the EC50 fell in the range of 10 to 100 nM. The same molecule displayed an IC50 in assay [2] of 10 to 100 nM.
`CCCC1CCCCN1C(=O)c1cccc(-c2cccc(-n3ncc(C(=O)O)c3C3CC3)c2)c1F` (stereo in doubt) [Example 54d, 5-Cyclopropyl-1-{3-[2-fluoro-3-((2R)-2-propylpiperidine-1-carbonyl)phenyl]phenyl}-1H-pyrazole-4-carboxylic Acid]: in assay [1] (Homo sapiens), the EC50 lay within 100 to 1000 nM. The same molecule came in with an IC50 in assay [2] of 1000 to 10000 nM.
As to `O=C(O)c1cnn(-c2cccc(-c3cccc(C(=O)N(CC4CC4)CC4CC4)c3F)c2)c1C1CC1` [Example 8, 1-(3-{3-[Bis(cyclopropylmethyl)carbamoyl]-2-fluorophenyl}phenyl)-5-cyclopropyl-1H-pyrazole-4-carboxylic Acid], the EC50 in assay [1] (Homo sapiens) was in the range of 100 to 1000 nM. Further, in assay [2], the IC50 was 100 to 1000 nM.
With `CC(C)CC1CCCCN1C(=O)c1cccc(-c2cccc(-n3ncc(C(=O)O)c3C3CC3)c2)c1F` (stereo not shown) [Example 28, 5-Cyclopropyl-1-(3-{2-fluoro-3-[2-(2-methylpropyl)piperidine-1-carbonyl]phenyl}phenyl)-1H-pyrazole-4-carboxylic Acid], the EC50 in assay [1] (Homo sapiens) was 100 to 1000 nM. In addition, the IC50 in assay [2] was in the range of 100 to 1000 nM.
As for `CC1CCCN(C(=O)c2cccc(-c3cccc(-n4ncc(C(=O)O)c4C4CC4)c3)c2F)CC1` (stereo not shown) [Example 29, 5-Cyclopropyl-1-{3-[2-fluoro-3-(4-methylazepane-1-carbonyl)phenyl]phenyl}-1H-pyrazole-4-carboxylic Acid], the EC50 in assay [1] (Homo sapiens) lay in the range of 100 to 1000 nM. The same molecule had an IC50 in assay [2] of 100 to 1000 nM.
`CC1CCC(C)N(C(=O)c2cccc(-c3cccc(-n4ncc(C(=O)O)c4C4CC4)c3)c2F)C1` (stereo not shown) [Example 30, 5-Cyclopropyl-1-{3-[3-(2,5-dimethylpiperidine-1-carbonyl)-2-fluorophenyl]phenyl}-1H-pyrazole-4-carboxylic Acid]: the EC50 in assay [1] (Homo sapiens) lay in the range of 100 to 1000 nM. The molecule further had an IC50 in assay [2] of 1000 to 10000 nM.
For the molecule `O=C(O)c1cnn(-c2cccc(-c3cccc(C(=O)N4CCCC5CCCCC54)c3F)c2)c1C1CC1` (stereo not shown) [Example 31, 5-Cyclopropyl-1-{3-[3-(decahydroquinoline-1-carbonyl)-2-fluorophenyl]phenyl}-1H-pyrazole-4-carboxylic Acid], in assay [1] (Homo sapiens), the EC50 lay in the range of 100 to 1000 nM. In assay [2], the IC50 is 1000 to 10000 nM.
For `O=C(O)c1cnn(-c2cccc(-c3cccc(C(=O)N4CCCCC4C4CCCC4)c3F)c2)c1C1CC1` (stereo not shown) [Example 33, 1-{3-[3-(2-Cyclopentylpiperidine-1-carbonyl)-2-fluorophenyl]phenyl}-5-cyclopropyl-1H-pyrazole-4-carboxylic Acid], in that order: 100 to 1000 nM and 100 to 1000 nM.
On to `O=C(O)c1cnn(-c2cccc(-c3cccc(C(=O)N4C5CCCC4CCC5)c3F)c2)c1C1CC1` [Example 34, 1-[3-(3-{9-azabicyclo[3.3.1]nonane-9-carbonyl}-2-fluorophenyl)phenyl]-5-cyclopropyl-1H-pyrazole-4-carboxylic Acid], for which the EC50 in assay [1] (Homo sapiens) lay in the range of 100 to 1000 nM. The molecule also displayed an IC50 in assay [2] of 100 to 1000 nM.
On to `O=C(O)c1cnn(-c2cccc(-c3cccc(C(=O)N4CCCC5(CCCC5)C4)c3F)c2)c1C1CC1` [Example 35, 1-[3-(3-{7-Azaspiro[4.5]decane-7-carbonyl}-2-fluorophenyl)phenyl]-5-cyclopropyl-1H-pyrazole-4-carboxylic Acid], for which the EC50 in assay [1] (Homo sapiens) fell in the range of 100 to 1000 nM. Besides, the IC50 in assay [2] is 100 to 1000 nM.
For `O=C(O)c1cnn(-c2cccc(-c3cccc(C(=O)N4CCCCC4CCC(F)(F)F)c3F)c2)c1C1CC1` (stereo not shown) [Example 38, 5-Cyclopropyl-1-(3-{2-fluoro-3-[2-(3,3,3-trifluoropropyl)piperidine-1-carbonyl]phenyl}phenyl)-1H-pyrazole-4-carboxylic Acid], in assay [1] (Homo sapiens), the EC50 fell in the range of 100 to 1000 nM. This molecule also displayed an IC50 in assay [2] of 100 to 1000 nM.
